Test results published in patent US20100004222A1, “Amide Derivatives as Ion-Channel Ligands and Pharmaceutical Compositions and Methods of Using the Same” (Renovis, Inc., priority 2006, published 2010).

Columns and labels:
[1] = Pharmacokinetic evaluation following intravenous and oral administration in rats; format: in vivo; settings: male, Sprague-Dawley, plasma, rat; for clearance: non-compartmental analysis, read-out: In vivo Clearance (converted); for bioavailability: AUCinf (PO)/AUCinf (IV), dose normalized, PO 5 mg/kg, read-out: Oral Bioavailability F (%)
Protocol: Male Sprague-Dawley rats are acclimatized for at least 24 hours prior to experiment initiation. During acclimation period, all animals receive food and water ad libitum. However, food but not water is removed from the animal's cages at least 12 hours before initiation of the experiment. During the first 3 hours of experimentation, the animals receive only water ad libitum. At least three animal each are tested for intravenous and oral dosage. For intravenous formulation, compounds were dissolved (0.25 to 1 mg/mL) in a mixture of 3% dimethyl sulfoxide, 40% PEG 400 and the rest percentage of 40% Captisol in water (w/v). For oral formulation, compounds of this invention are dissolved (2 mg/mL) in a mixture of 5% of 10% Tween 80 in water (v/v) and 95% of 0.5% methyl cellulose in water (w/v). The animals are weighed before dosing. The determined body weight is used to calculate the dose volume for each animal.
Dose volume(mL/kg)=1 mg/kg/formulation concentration(mg/mL)
In instances where the formulation concentrations were less than 0.5 mg/mL, the dosing volume is about 2 mL/kg. PO rats are typically dosed through oral gavage at 2.5 mL/kg to achieve a dose level of 5 mg/kg. For IV dosing, blood samples are collected (using a pre-heparinized syringe) via the jugular vein catheter at 2, 5, 15, 30, 60, 120, 180, 300, 480, and 1440 minutes post dosing. For PO dosing, blood samples are collected (using a pre-heparinized syringe) via the jugular vein catheter before dosing and at 5, 15, 30, 60, 120, 180, 300, 480, and 1440 minutes post dosing. About 250 uL of blood is obtained at each time point from the animal. Equal volumes of 0.9% normal saline are replaced to prevent dehydration. The whole blood samples are maintained on ice until centrifugation. Blood samples are then centrifuged at 14,000 rpm for 10 minutes at 4° C. and the upper plasma layer transferred into a clean vial and stored at −80° C. The resulting plasma samples are then analyzed by liquid chromatography-tandem mass spectrometry. Following the measurement of plasma samples and dosing solutions, plasma concentration-time curve is plotted. Plasma exposure is calculated as the area under the concentration-time curve extrapolated to time infinite (AUCinf). The AUCinf is averaged and the oral bioavailability (% F) for individual animal is calculated as:
AUCinf (PO)/AUCinf (IV), normalized to their respective dose levels. The % F is reported as the mean % F of all animals dosed orally with the compound of the invention at the specified level (Table 6).
In vivo clearance in the rat was calculated by conducting a non-compartmental analysis of the pharmacokinetic profile using WinNonlin software.

VR1 = VR1 (Homo sapiens, UniProt Q8NER1); test: Calcium uptake assay, low pH (proton) agonist; format: cell-based; parameters: expressed in transfected cells; host or cells: T-REx HEK 293 (Invitrogen), pcDNA5/TO vector; settings: HEK293; 0.3 μM compound; low pH (protons) as agonist; HEK 293 cells expressing hVR1; read-out: Low pH % Inhib. @ 0.3 μM
VR1, sequence (Q8NER1 whole entry): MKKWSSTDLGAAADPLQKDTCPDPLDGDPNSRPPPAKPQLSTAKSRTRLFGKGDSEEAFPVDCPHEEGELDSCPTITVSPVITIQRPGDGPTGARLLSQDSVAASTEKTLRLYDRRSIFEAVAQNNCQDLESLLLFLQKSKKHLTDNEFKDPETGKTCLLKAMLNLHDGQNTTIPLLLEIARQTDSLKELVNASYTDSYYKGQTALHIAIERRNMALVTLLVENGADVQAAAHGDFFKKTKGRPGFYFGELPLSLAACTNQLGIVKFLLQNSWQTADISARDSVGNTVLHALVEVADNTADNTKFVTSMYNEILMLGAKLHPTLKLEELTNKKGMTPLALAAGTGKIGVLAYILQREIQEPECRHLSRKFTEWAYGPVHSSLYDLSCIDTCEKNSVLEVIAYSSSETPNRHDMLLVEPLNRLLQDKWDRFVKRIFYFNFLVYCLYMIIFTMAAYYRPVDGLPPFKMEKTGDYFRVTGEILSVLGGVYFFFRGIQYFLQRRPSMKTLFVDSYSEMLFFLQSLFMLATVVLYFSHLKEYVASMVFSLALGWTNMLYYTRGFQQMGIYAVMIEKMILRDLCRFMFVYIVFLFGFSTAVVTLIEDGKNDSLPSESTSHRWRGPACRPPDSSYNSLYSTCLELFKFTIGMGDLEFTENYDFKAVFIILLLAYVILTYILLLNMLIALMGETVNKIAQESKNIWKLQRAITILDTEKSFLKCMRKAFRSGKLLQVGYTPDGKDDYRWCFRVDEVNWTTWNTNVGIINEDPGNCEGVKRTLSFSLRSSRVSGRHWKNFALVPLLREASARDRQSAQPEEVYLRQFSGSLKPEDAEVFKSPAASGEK

clearance [1] [mL/min/kg] | inhibition at 0.3 µM (VR1) [%] | bioavailability [1] [%] | SMILES
17.7 | – | – | Cc1cc(/C=C/C(F)(F)F)ccc1C(=O)Nc1ccc2c(c1)OCCN2 [Compound 118]
– | 0 | – | O=C(Nc1ccc2c(c1)OCCN2)c1ccc(C#CC2CC2)nc1Cl [Compound 119]
61 | – | – | COc1cc(/C=C/C(F)(F)F)ccc1C(=O)Nc1ccc2c(c1)OCCN2 [Compound 122]
32 | – | – | COc1cc(/C=C/C(F)(F)F)ccc1C(=O)Nc1ccc2c(c1)OCCO2 [Compound 123]
20.7 | – | 67 | Cc1cc(C#CC2CC2)ccc1C(=O)Nc1ccc2c(c1)OCC(CO)N2 (stereo not shown) [Compound 124]
33.7 | – | 17 | Cc1cc(C#CC2CCCC2)ccc1C(=O)Nc1ccc2c(c1)OCC(CO)N2 (stereo not shown) [Compound 125]
44.9 | – | 35 | O=C(Nc1ccc2c(c1)OCC(CO)N2)c1ccc(C#CC2CCCC2)cc1F (stereo not shown) [Compound 126]
30.9 | – | 66 | O=C(Nc1ccc2c(c1)OCC(CO)N2)c1ccc(C#CC2CC2)cc1F (stereo not shown) [Compound 127]
1.88 | – | 68 | O=C(Nc1ccc2c(c1)OCC(CO)N2)c1c(F)cc(C#CC2CC2)cc1F (stereo not shown) [Compound 129]
21.6 | – | > 100 | Cc1cc(/C=C/C(F)(F)F)ccc1C(=O)Nc1ccc2c(c1)OCC(CO)N2 (stereo not shown) [Compound 131]
85.1 | – | 63 | O=C(Nc1ccc2c(c1)OCCN2)c1ccc(/C=C/C(F)(F)F)cc1F [Compound 134]
38.7 | – | 36 | CC(C)(C)C#Cc1ccc(C(=O)Nc2ccc3c(c2)OCC(CO)N3)c(F)c1 (stereo not shown) [Compound 138]
31.5 | – | 68 | O=C(Nc1ccc2c(c1)OCC(CO)N2)c1ccc(/C=C/C(F)(F)F)cc1F (stereo not shown) [Compound 144]
– | 102 | – | O=C(Nc1ccc2c(c1)OCC(CO)N2)c1ccc(C#CC2CC2)cc1Cl (stereo not shown) [Compound 156]
15.6 | – | 83 | O=C(Nc1ccc2c(c1)OCC(CO)N2)c1ccc(/C=C/C(F)(F)F)cc1Cl (stereo not shown) [Compound 157]
13 | – | 42 | CC(C)(C)C#Cc1ccc(C(=O)Nc2ccc3c(c2)OCC(CO)N3)c(Cl)c1 (stereo not shown) [Compound 158]
– | 0 | – | CS(=O)(=O)c1cc(C#CC2CCCC2)ccc1C(=O)Nc1ccc2c(c1)OCCO2 [Compound 159]
85.4 | – | 22 | O=C(Nc1cccc2cnccc12)c1ccc(/C=C/C(F)(F)F)cc1F [Compound 160]
44.3 | – | 2 | Cc1nc2cc(NC(=O)c3ccc(C#CC(C)(C)C)cc3C)ccc2s1 [Compound 162]
110 | – | 53 | Cc1cc(C#CC(C)(C)C)ccc1C(=O)Nc1cccc2cnccc12 [Compound 163]
33.5 | – | 1 | CC(C)(C)C#Cc1ccc(C(=O)Nc2cnc3ccccc3c2)c(Cl)c1 [Compound 164]

clearance [1] [mL/min/kg] | inhibition at 0.3 µM (VR1) [%] | bioavailability [1] [%] | SMILES
41.2 | – | 76 | CC(C)(C)C#Cc1ccc(C(=O)Nc2ccc3c(c2)OC[C@H](CO)N3)c(F)c1 [Compound 172]
41.8 | – | 1 | Cc1cc(C#CC(C)(C)C)ccc1C(=O)Nc1cnc2ccccc2c1 [Compound 181]
35.2 | – | 17 | Cc1cc(C#CC(C)(C)C)ccc1C(=O)Nc1ccc2c(c1)OC[C@@H](CO)N2 [Compound 184]
7.7 | – | 8 | Cc1nc2cc(NC(=O)c3ccc(/C=C/C(F)(F)F)cc3C)ccc2s1 [Compound 188]
– | 67 | – | Cc1cc(C#CC(C)(C)C)ccc1C(=O)Nc1cccc2c(Cl)nccc12 [Compound 199]
9.97 | – | > 100 | Cc1cc(/C=C/C(F)(F)F)ccc1C(=O)Nc1ccc2cccnc2c1 [Compound 224]
37.4 | – | 39 | Cc1cc(/C=C/C(F)(F)F)ccc1C(=O)Nc1ccc2cc(CO)cnc2c1 [Compound 228]
15.3 | – | 17 | Cc1cc(/C=C/C(F)(F)F)ccc1C(=O)Nc1cnc2[nH]ccc2c1 [Compound 230]
– | 0 | – | Cc1cc(/C=C/C(F)(F)F)ccc1C(=O)Nc1ccc2c(CO)n[nH]c2c1 [Compound 231]
– | 43 | – | Cc1cc(/C=C/C(F)(F)F)ccc1C(=O)Nc1ccc2cc(C(=O)O)cnc2c1 [Compound 301]
– | 51 | – | Cc1cc(/C=C/C(F)(F)F)ccc1C(=O)Nc1ccc2c(c1)C(=O)CCC2 [Compound 306, (E)-2-methyl-N-(8-oxo-5,6-7,8-tetrahydronaphthylen-2-yl)-4(3,3,3-trifluoroprop-1-enyl)benzamide]
– | 20 | – | Cc1cc(/C=C/C(F)(F)F)ccc1C(=O)Nc1ccc2ccc(O)nc2n1 [Compound 311, (E)-N-(7-hydroxy-1,8-naphthyridin-2-yl)-2-methyl-4-(3,3,3-trifluoroprop-1-en-1)benzamide]
– | 51.3 | – | Cc1cc(/C=C/C(F)(F)F)ccc1C(=O)Nc1cnc2c(c1)CC(O)CC2 (stereo not shown) [Compound 315, (E)-N-(6-hydroxy-5,6,7,8-tetrahydroquinolol-3-yl)-2-methyl-4-(3,3,3-trifluoroprop-1-enyl)benzamide]
– | 52 | – | C/C(=C\c1ccc(C(=O)Nc2cnc3ccccc3c2)c(C)c1)C(F)(F)F [Compound 316]
– | 47 | – | Cc1cc(/C=C/C(F)(F)F)ccc1C(=O)Nc1cnc2cc(C(C)O)cnc2c1 (stereo not shown) [Compound 320, (E)-N-(7-(1-hydroxyethyl)-1,5-naphthyridin-3-yl)-2-methyl-4-(3,33-trifluoroprop-1-enyl)benzamide]
– | 41.5 | – | Cc1cc(/C=C/C(F)(F)F)ccc1C(=O)Nc1cnc2ncccc2c1 [Compound 321, (E)-2-methyl-N-(1,8-naphthyridin-3-yl)-4-(3,3,3-trifluoroprop-1-enyl)benzamide]
– | 42.7 | – | CC(=O)N1CCCc2ccc(NC(=O)c3ccc(/C=C/C(F)(F)F)cc3C)cc21 [Compound 322, (E)-N-(1-acetyl-1,2,3,4-tetrahydroquinolin-7-yl)-2-methyl-4-(3,3,3-trifluoroprop-1-enyl)benzamide]
– | 0.74 | – | CC(=O)c1cnc2cc(NC(=O)c3ccc(/C=C/C(F)(F)F)cc3C)cnc2c1 [Compound 324]
– | 6.76 | – | Cc1cc(/C=C/C(F)(F)F)ccc1C(=O)Nc1cnc2cc(C(C)(C)O)cnc2c1 [Compound 326, (E)-N-(7-(2-hydroxypropan-2-yl)-1,5-naphthyridin-3-yl)-2-methyl-4-(3,3,3-trifluoroprop-1-enyl)benzamide]
– | 0 | – | Cc1cc(/C=C/C(F)(F)F)ccc1C(=O)Nc1ccc2c(c1)N(C(=O)C1CC1)CC2 [Compound 402, (E)-N-(1-cyclopropanecarbonyl-2,3-dihydro-1H-indol-6-yl)-2-methyl-4-(3,3,3-trifluoro-prop-1-enyl)benzamide]
– | 10 | – | Cc1cc(/C=C/C(F)(F)F)ccc1C(=O)Nc1ccc2c(c1)C(=O)N(CCO)C2=O [Compound 404, (E)-N-(2-(2-hydroxyethyl)-1,3-dioxoisoindolin-5-yl)-2-methyl-(3,3,3-trifluoroprop-1-enyl)benzamide]
